This passage reports IC50 results from patent US20080161232A1, “C5a Receptor Antagonist” (JERINI AG, priority 2005, published 2008).

Positions of bridges follow the written chain, without caps; N, C: chain ends. Non-standard residues stand in square brackets, D forms with d. Residues, ends and D or L forms follow the SMILES beside them. *: point of attachment. Phe(3-F) = N[C@@H](Cc1cccc(F)c1)C(=O)O; Phe(4-F) = N[C@@H](Cc1ccc(F)cc1)C(=O)O; Bta = N[C@@H](Cc1csc2ccccc12)C(=O)O; Morpholinoacetyl = O=C(CN1CCOCC1)*; cisHyp = O=C(O)[C@@H]1C[C@H](O)CN1; Hydrocinnamoyl = O=C(CCc1ccccc1)*; Hyp = O=C(O)[C@@H]1C[C@@H](O)CN1; d(hLeu) = CC(C)CC[C@@H](N)C(=O)O; dCha = N[C@H](CC1CCCCC1)C(=O)O; Nle = CCCC[C@H](N)C(=O)O; Orn = NCCC[C@H](N)C(=O)O; NPrGly = CCCNCC(=O)O

In this assay the target is T1, human C5aR(CD88) (Homo sapiens, UniProt P21730).
T1 construct: expressed in transfected cells; host or cells: rat basophilic leukemia cells (RBL)
T1 sequence (P21730 1-350): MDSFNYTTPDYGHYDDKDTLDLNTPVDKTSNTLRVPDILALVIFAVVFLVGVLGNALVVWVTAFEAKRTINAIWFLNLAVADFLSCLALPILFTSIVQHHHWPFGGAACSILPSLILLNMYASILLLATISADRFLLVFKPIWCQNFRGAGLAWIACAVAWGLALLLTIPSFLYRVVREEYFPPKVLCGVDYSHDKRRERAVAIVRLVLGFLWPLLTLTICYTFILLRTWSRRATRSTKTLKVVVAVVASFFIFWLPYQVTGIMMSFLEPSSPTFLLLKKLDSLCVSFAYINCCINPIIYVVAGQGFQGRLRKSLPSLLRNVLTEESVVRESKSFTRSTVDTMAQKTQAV
Briefly: Determination of the IC50 value in an enzyme release assay (functional assay, antagonistic activity). Particulars: antagonistic activity; IC50 group in enzyme release assay, RBL cells expressing human C5aR(CD88); read-out: activity (group). Format: cell-based.
Regarding `CCCC[C@@H]1NC(=O)[C@H](Cc2c[nH]c3ccccc23)NC(=O)[C@@H](CC2CCCCC2)NC(=O)[C@@H]2C[C@H](O)CN2C(=O)[C@@H](NC(=O)[C@H](Cc2ccccc2)NC(C)=O)CCCNC1=O` [Compound 175, Ac-Phe-[Orn-Chy-cha-Trp-Nle]] (Ac-F[Orn][cisHyp][dCha]W[Nle]; lactam 2-C), the IC50 was 0.05 to 0.2 µM.
The value for `NCCC[C@H](NC(=O)CCc1ccccc1)C(=O)N1CCC[C@H]1C(=O)N[C@H](CC1CCCCC1)C(=O)N[C@@H](Cc1csc2ccccc12)C(=O)N[C@@H](Cc1ccccc1)C(N)=O` [Compound 324, Faz-Orn-Pro-cha-Bta-Phe-NH2] (Hydrocinnamoyl-[Orn]P[dCha][Bta]F-NH2) was 0.05 to 0.2 µM.
With `CCCN(CC(=O)N[C@H](CC1CCCCC1)C(=O)N[C@@H](Cc1csc2ccccc12)C(=O)N[C@@H](Cc1ccccc1)C(N)=O)C(=O)[C@H](CCCN)NC(=O)[C@H](Cc1ccccc1)NC(C)=O` [Compound 237, Ac-Phe-Orn-G24-cha-Bta-Phe-NH2] (Ac-F[Orn][NPrGly][dCha][Bta]F-NH2), the IC50 lay within 0.05 to 0.2 µM.
As for `CC(=O)N[C@@H](Cc1cccc(F)c1)C(=O)N[C@@H](CCCN)C(=O)N1CCC[C@H]1C(=O)N[C@H](CC1CCCCC1)C(=O)N[C@@H](Cc1csc2ccccc12)C(=O)N[C@@H](Cc1ccccc1)C(N)=O` [Compound 161, Ac-Mff-Orn-Pro-cha-Bta-Phe-NH2] (Ac-[Phe(3-F)][Orn]P[dCha][Bta]F-NH2), the IC50 is 0.05 to 0.2 µM.
On to `CC(=O)N[C@@H](Cc1ccc(F)cc1)C(=O)N[C@@H](CCCN)C(=O)N1CCC[C@H]1C(=O)N[C@H](CCC(C)C)C(=O)N[C@@H](Cc1csc2ccccc12)C(=O)N[C@@H](Cc1ccccc1)C(N)=O` [Compound 170, Ac-Pff-Orn-Pro-hle-Bta-Phe-NH2] (Ac-[Phe(4-F)][Orn]P[d(hLeu)][Bta]F-NH2), for which the IC50 fell in the range of 0.05 to 0.2 µM.
The value for `CC(=O)N[C@@H](Cc1ccccc1)C(=O)N[C@@H](CCCN)C(=O)N1C[C@H](O)C[C@H]1C(=O)N[C@H](CCC(C)C)C(=O)N[C@@H](Cc1ccc(F)cc1)C(=O)N[C@@H](Cc1ccccc1)C(N)=O` [Compound 245, Ac-Phe-Orn-Hyp-hle-Pff-Phe-NH2] (Ac-F[Orn][Hyp][d(hLeu)][Phe(4-F)]F-NH2) was 0.05 to 0.2 µM; that for `O=C(CN1CCOCC1)N[C@@H](Cc1ccccc1)C(=O)N[C@H]1CCCNC(=O)[C@H](Cc2ccccc2)NC(=O)[C@H](Cc2c[nH]c3ccccc23)NC(=O)[C@@H](CC2CCCCC2)NC(=O)[C@@H]2C[C@@H](O)CN2C1=O` [Compound 335, Fha-Phe-[Orn-Hyp-cha-Trp-Phe]] (Morpholinoacetyl-F[Orn][Hyp][dCha]WF; lactam 2-C) was 0.05 to 0.2 µM; that for `CC(C)CC[C@H]1NC(=O)[C@H](CO)NC(=O)[C@@H](NC(=O)[C@@H](N)Cc2ccccc2)CCCNC(=O)[C@H](Cc2ccccc2)NC(=O)[C@H](Cc2ccc(F)cc2)NC1=O` [Compound 389, H-Phe-[Orn-Ser-hle-Pff-Phe]] (H-F[Orn]S[d(hLeu)][Phe(4-F)]F; lactam 2-C) was 0.05 to 0.2 µM.
Under `N[C@@H](Cc1ccccc1)C(=O)N[C@H]1CCCNC(=O)[C@H](Cc2ccccc2)NC(=O)[C@H](Cc2c[nH]c3ccccc23)NC(=O)[C@@H](CC2CCCCC2)NC(=O)[C@@H]2C[C@@H](O)CN2C1=O` [Compound 357, H-Phe-[Orn-Hyp-cha-Trp-Phe]] (H-F[Orn][Hyp][dCha]WF; lactam 2-C) stands 0.02 to 0.05 µM; under `CCCC[C@@H]1NC(=O)[C@H](Cc2c[nH]c3ccccc23)NC(=O)[C@@H](CCC(C)C)NC(=O)[C@@H]2C[C@@H](O)CN2C(=O)[C@@H](NC(=O)[C@@H](N)Cc2ccccc2)CCCNC1=O` [Compound 369, H-Phe-[Orn-Hyp-hle-Trp-Nle]] (H-F[Orn][Hyp][d(hLeu)]W[Nle]; lactam 2-C), 0.02 to 0.05 µM.
Regarding `CCCC[C@@H]1NC(=O)[C@H](Cc2ccc(F)cc2)NC(=O)[C@@H](CC2CCCCC2)NC(=O)[C@@H]2CCCN2C(=O)[C@@H](NC(=O)[C@@H](N)Cc2ccccc2)CCCNC1=O` [Compound 374, H-Phe-[Orn-Pro-cha-Pff-Nle]] (H-F[Orn]P[dCha][Phe(4-F)][Nle]; lactam 2-C), the IC50 is 0.05 to 0.2 µM.
For the molecule `CC(=O)N[C@@H](Cc1cccc(F)c1)C(=O)N[C@@H](CCCN)C(=O)N1CCC[C@H]1C(=O)N[C@H](CCC(C)C)C(=O)N[C@@H](Cc1csc2ccccc12)C(=O)N[C@@H](Cc1ccccc1)C(N)=O` [Compound 162, Ac-Mff-Orn-Pro-hle-Bta-Phe-NH2] (Ac-[Phe(3-F)][Orn]P[d(hLeu)][Bta]F-NH2), the IC50 lay within 0.05 to 0.2 µM.
